Measured values reported in patent publication US20160122342A1, “ENHANCER OF ZESTE HOMOLOG 2 INHIBITORS” (GLAXOSMITHKLINE INTELLECTUAL PROPERTY (NO.2) LIMITED, priority 2013, published 2016).
Read-outs that look alike come from different tables or passages of the source.

Conditions: rcm bond, DCM, 25.0 °C

CCN(c1cccc2c1C/C=C\COc1cc(C)nc(OC)c1CNC2=O)C1CCOCC1
ring closure, isolated yield (from C=CCOc1cc(C)nc(OC)c1CNC(=O)c1cccc(N(CC)C2CCOCC2)c1CC=C, 12-membered ring, Grubbs II (10+10 mol%, then 10 mg), 19.5 mM, 132.0 h): 19%

CCN(c1cccc2c1CC=CCOCc1cc(C)nc(OC)c1CNC2=O)C1CCOCC1
ring closure, isolated yield (from C=CCOCc1cc(C)nc(OC)c1CNC(=O)c1cccc(N(CC)C2CCOCC2)c1CC=C, 13-membered ring, Grubbs II (10 mol%), 20.0 mM, 22.0 h): 54.7%

CCN(c1cccc2c1CC=CCCCCc1cc(C)nc(OC)c1CNC2=O)C1CCOCC1
ring closure, isolated yield (from C=CCCCCc1cc(C)nc(OC)c1CNC(=O)c1cccc(N(CC)C2CCOCC2)c1CC=C, 14-membered ring, Grubbs II (10 mol%, then ca. 10 mg), 15.8 mM, 22.0 h): 73.1%

COc1cc(Cl)cc2c1CC=CCCCc1cc(C)nc(OC)c1CNC2=O
ring closure, isolated yield (from C=CCCCc1cc(C)nc(OC)c1CNC(=O)c1cc(Cl)cc(OC)c1CC=C, 13-membered ring, Grubbs II (10 mol%), 19.6 mM, 16.0 h): 76%
